Patent US20080274121A1, “Inhibition of Angiogenesis by Mithramycin” (priority 2007, published 2008)

Experiments:
Sp1, VEGF, CD31 (MVD) = experiment: Gene expression and microvessel formation in PANC-1 tumor tissues; format: in vivo, nude mice
Description: FIG. 13. Analysis of gene expression and microvessel formation in tumor tissues. The tumor tissues described in FIG. 2 were collected and processed as described in Materials and Methods. A, total protein lysates were harvested from tumor tissues, and the level of protein expression was determined using Western blot analysis. Equal protein-sample loading was monitored by probing the same membrane filter with an anti-β-actin antibody. NS, nonspecific. B, the levels of Sp1 and VEGF expression were quantitated and expressed as fold change. C, MVD was quantitated according to CD31 staining. D, immunohistochemical staining was performed using specific antibodies against Sp1, VEGF, and CD31. Representative photos of the stains are shown.
Western blot analysis. Whole-cell lysates were prepared from human pancreatic cancer cell lines and tissues (23). Standard Western blotting was performed using polyclonal rabbit antibodies against human and mouse Sp1, VEGF, and EGFR (Santa Cruz Biotechnology, Santa Cruz, Calif.) and the anti-rabbit IgG antibody, a horseradish peroxidase-linked F(ab′)2 fragment obtained from a donkey (Amersham, Arlington Heights, Ill.). Equal protein-sample loading was monitored by probing the same membrane filter with antibodies against anti-β-actin or glyceraldehyde-3-phosphate dehydrogenase (GAPDH) (23). The probe proteins were detected using the Amersham enhanced chemiluminescence system according to the manufacturer's instructions.
Immunohistochemical analysis and quantification of tumor MVD. For CD31 staining, frozen tissue sections (5 μm thick) were fixed in acetone. Endogenous peroxidase in the specimens was blocked using 3% hydrogen peroxide in phosphate-buffered saline (PBS) for 12 minutes. […] For quantification of tumor MVD, vessels on each section were counted in five high-power fields (magnification, ×200 [×20 objective and ×10 ocular]) as described previously (41). […]

H727 cells = experiment: Viable cell count in vitro, H727; format: cell-based, human; settings: 0 to 100 μg/ml BVZ, 5 days
Description: FIG. 18. Effects of treatment with BVZ and MIT on the growth of and gene expression in human carcinoid cells in vitro. A. H727 and BON-1 cells were incubated for 5 days in a medium alone or a medium containing 25 to 100 μg/ml BVZ. The viable cells were counted. B. H727 cells were incubated for 5 days in a medium alone or a medium containing 100 μg/ml BVZ. Total protein lysates were harvested from the cell cultures, and the level of Sp1 and VEGF protein expression was determined using Western blot analysis. Equal protein-sample loading was monitored by probing the same membrane filter with an anti-GAPDH. C. H727 and BON-1 cells were treated with MIT at concentrations ranging from 0.1 to 2.5 μM for 24 hours. Cytotoxicity was assessed using the MTT assay.
Effects of treatment with BVZ and MIT on the growth of and gene expression in human LGNET cells. To further determine whether treatment with BVZ directly impacts gene expression in LGNET cells, we incubated H727 and BON-1 cells in a medium alone or a medium containing 0 to 100 μg/ml BVZ for 5 days.

bevacizumab [BVZ]
MVD (Sp1, VEGF, CD31 (MVD); CD31 staining, low-dose BVZ or MIT alone): did not significantly reduce MVD | expression of platelet-derived growth factor, IGF-R, and EGFR in tumor tissue (Sp1, VEGF, CD31 (MVD); Western blot, data not shown): upregulated the expression of other proangiogenic molecules | Sp1 and VEGF expression in tumor tissue (Sp1, VEGF, CD31 (MVD); Western blot, mice treated with PBS, BVZ, MIT, or B+M (low doses)): increased expression of Sp1 and its downstream molecule VEGF | cell growth in vitro (H727 cells): did not affect the growth
